Data from US6255285A, “Phenethylamine derivatives” (Chugai Seiyaku Kabushiki Kaisha, priority 1997, dated 2001).
Square brackets hold non-standard residues; d marks the D form. Peptide text beside a SMILES is read from it. Tyr(3-tBu) = CC(C)(C)c1cc(C[CH](N)C(=O)O)ccc1O; Phg = N[CH](C(=O)O)c1ccccc1

How the values were obtained:
[1] = molecular target: T1, motilin receptor (Oryctolagus cuniculus, UniProt G1T803); experiment: Motilin receptor binding test; conditions: rabbit duodenum homogenate, 125I motilin 25 pM; concentration reducing specific binding by 50%
T1 construct: had the mucous membrane separated and homogenized in 50 mM Tris-HCl buffer to prepare a receptor sample; from tissue; host or cells: rabbit duodenum with the mucosa removed, homogenate
Description: Motilin Receptor Binding Test
A motilin receptor binding test was conducted in the following manner [Bormans et al., Regul. Peptides, 15, 143 (1986)]. The duodenum was extracted from a slaughtered rabbit, had the mucous membrane separated and homogenized in 50 mM Tris-HCl buffer to prepare a receptor sample. The sample was incubated together with ^125 I motilin 25 pM and thereafter the radioactivity bound to the receptor was measured. Specific binding was defined as the difference between the radioactivity in the case of adding 1% DMSO in place of the compounds of the examples and that in the case of adding a great excess amount of motilin (10^-7 M). The activity of each compound was expressed by IC50 (in nM), as the concentration sufficient to reduce the specific binding by 50%.

[2] = system: motilin-induced contraction of a specimen of longitudinal muscle in the duodenum extracted from a rabbit; experiment: Contraction suppressing test: action on motilin-induced contraction of duodenum longitudinal muscle specimen; format: cell-based; conditions: rabbit duodenum specimen in organ bath, Krebs solution 28° C.; effect on dose-dependent contraction by motilin
Description: Action on the Contraction of a Specimen of Longitudinal Muscle in the Duodenum Extracted from a Rabbit
The action on the motilin-induced contraction of a specimen of longitudinal muscle in the duodenum extracted from a rabbit was investigated by the following method. A duodenum specimen extracted from a slaughtered rabbit (3×10 mm) was suspended in an organ bath (10 ml) such that the longitudinal muscle would run vertically; the bath was filled with a Krebs solution kept at 28° C. A mixed gas (95% O2 and 5% CO2) was continuously bubbled into the Krebs solution and the contraction of the duodenum specimen was recorded isotonically (with a 1-g load) via an isotonic transducer (TD-111T of Nihon Koden, K.K.) The degree of contraction was expressed in relative values, with the contraction by acetylcholine at a dose of 10^-4 M being taken as 100%. The activity of each compound was calculated as pA2 value indicating its effect on the dose-dependent muscle contraction by the motilin put into the organ bath.

T1 sequence (G1T803 1-400): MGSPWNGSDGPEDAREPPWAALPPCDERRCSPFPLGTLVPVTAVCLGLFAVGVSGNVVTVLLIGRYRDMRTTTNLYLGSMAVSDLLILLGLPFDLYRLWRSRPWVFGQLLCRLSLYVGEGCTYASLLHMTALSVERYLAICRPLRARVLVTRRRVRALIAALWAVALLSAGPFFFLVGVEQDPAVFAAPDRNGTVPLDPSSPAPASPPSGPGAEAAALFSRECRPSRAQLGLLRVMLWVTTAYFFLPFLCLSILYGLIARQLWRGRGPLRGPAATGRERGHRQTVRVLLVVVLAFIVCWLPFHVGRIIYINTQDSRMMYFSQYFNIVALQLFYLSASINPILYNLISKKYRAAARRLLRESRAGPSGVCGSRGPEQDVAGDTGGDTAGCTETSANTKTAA

Row | IC50 [1] [nM] | Structure (SMILES) | Contraction suppressing test, pA2 [2]
1 | 12 | CC(C)(C)c1cc(CC(NC(=O)C(NC(=O)C(N)Cc2ccccc2)c2ccccc2)C(N)=O)ccc1O (stereo not drawn) [Example 5, Phe-Phg-Tyr(3-tBu)-NH2] (H-Phe-[Phg]-[Tyr(3-tBu)]-NH2; configuration not given here) | 7.81
2 | 3.7 | CN(C(=O)C(N)Cc1ccccc1)C(C(=O)NC(Cc1ccc(O)c(C(C)(C)C)c1)C(N)=O)c1ccccc1 [Example 18B, Phe-N-Me-D-Phg-Tyr(3-tBu)-NH2] | 8.58
3 | 1.9 | CC(Cc1ccc(O)c(C(C)(C)C)c1)NC(=O)C(C(C)C)N(C)C(=O)[C@@H](N)Cc1ccccc1 (some centres unmarked) [Example 118, N-[2-(3-tert-butyl-4-hydroxyphenyl)-1-methylethyl]-3-methyl-2-(N-methyl-N-phenylalanylamino)butanamide] | 8.43
4 | 4.3 | CC(C)[C@@H](C(=O)N(C)[C@@H](Cc1ccc(O)c(C(C)(C)C)c1)C(N)=O)N(C)C(=O)[C@@H](N)Cc1ccccc1 [Example 119, Phe-N-Me-Val-N-Me-Tyr(3-tBu)-NH2] (HELM PEPTIDE1{F.[meV].[CN([C@@H](Cc1ccc(O)c(C(C)(C)C)c1)C(=O)[*:2])[*:1]].[am]}$$$$V2.0) | 8.59
